Source: US9776990B2, “Isoindolone derivatives” (AbbVie Inc., priority 2012, dated 2017)
pEC50, pKi: −log10 of the molar value. Marks after values point to notes of the source that are not given here.

Tests used:
[1] = test system: EJ-1; assay: Proliferation panel assay, EJ-1; type: cell-based; conditions: EJ1, 120 h; Bladder, EJ-1, 5 days; read-out: Cellular Proliferation EC50
Experimental: (§1) The impact of compounds of the Examples on cancer cell proliferation was determined using the breast cancer cell line MX-1 (ATCC) in a 3-day proliferation assay. MX-1 cells were maintained in RPMI supplemented with 10% FBS at 37 C.° and an atmosphere of 5% CO2. For compound testing, MX-1 cells were plated in 96-well black bottom plates at a density of 5000 cells/well in 90 μl of culture media and incubated at 37° overnight to allow cell adhesion and spreading. Compound dilution series were prepared in DMSO via a 3-fold serial dilution from 3 mM to 0.1 μM. […]
(§2) Luminescence readings from the Cell Titer Glo assay were normalized to the DMSO treated cells and analyzed using the GraphPad Prism software with sigmoidal curve fitting to obtain EC50s. The minimum significant ratio (MSR) was determined to evaluate assay reproducibility (Eastwood et al., (2006) J Biomol Screen, 11: 253-261). The overall MSR was determined to be 2.1 and a moving MSR (last six run MSR overtime) has been <2.
(§3) The compound of Example 40 was tested for its impact on proliferation of a panel of cancer cell line types (with specific cell lines tested) as set out in (Table 2). […] Cell proliferation data were analyzed as described above in the MX-1 proliferation assay to obtain the EC50 for the compounds reported in Table 2.

[2] = molecular target: BRD4 (BDI_K57-E168) (Homo sapiens (Human), UniProt O60885); assay: TR-FRET bromodomain binding assay, BRD4 first bromodomain; conditions: His-tagged BD1, 100 nM Alexa647 probe
Summary of the method: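 His-tagged BRD4 BD1 or BD2 (8 nM) with Eu-anti-His antibody (1 nM) and Alexa647-labelled BET-inhibitor probe (100 nM BDI, 30 nM BDII); 50 μM−0.85 nM compound, 2% DMSO, phosphate buffer pH 6.0, 1 h at room temperature. TR-FRET IC50 by 4-parameter fit, converted to Ki using probe Kd.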

[3] = test system: Ramos human B cell lymphoma cancer xenograft; assay: Xenograft tumor growth inhibition assay, Ramos; type: in vivo, mice; conditions: 100 mg/kg/day PO
Experimental: The effect of the compound of Example 40 to inhibit the growth of Ramos, OPM-2, MX-1, MV4-11, and HT1080 xenograft tumors was evaluated. Briefly, 0.5×10^6 human cancer cells (HT1080), 1×10^6 human cancer cells (Ramos), 5×10^6 human cancer cells (OPM-2, MV4-11) or 1:10 tumor brie (MX-1) (in S-MEM (MEM, Suspension, no Calcium, no Glutamine)) (Life Technologies Corporation) were inoculated subcutaneously into the right hind flank of female SCID or SCID-beige (MV4-11, HT1080) mice (Charles Rivers Labs) on study day 0. Compound was formulated in 2% EtOH, 5% Tween-80, 20% PEG-400, 73% HPMC (Ramos, OPM-2 and MX-1) or 5% DMSO, 5% EtOH, 30% PEG400, 60% Phosal 53 (MV4-11, HT1080). Administration of compound was initiated at the time of size match on day 8 (HT1080), day 17 (MX-1), or day 18 (Ramos, MV4-11, OPM-2). The tumors were measured by a pair of calipers twice a week starting at the time of size match and tumor volumes were calculated according to the formula V=L×W^2/2 (V: volume, mm^3; L: length, mm. W: width, m) Tumor volume was measured for the duration of the experiment until the mean tumor volume in each group reached an endpoint of >1000 mm^3.

[4] = test system: Ramos; assay: Proliferation panel assay, Ramos; type: cell-based; conditions: Homo sapiens, 120 h, NHL, 5 days, read-out: Cellular Proliferation EC50
Experimental: as §1, §2, §3

[5] = test system: PC3M; assay: Proliferation panel assay, PC3M; type: cell-based; conditions: Homo sapiens, PC-3M, 120 h, Prostate, 5 days, read-out: Cellular Proliferation EC50
Experimental: as §1, §2, §3

[6] = test system: HepG2; assay: Proliferation panel assay, HepG2; type: cell-based; conditions: Homo sapiens, 120 h; Hepatocellular, HepG2, 5 days; read-out: Cellular Proliferation EC50
Experimental: as §1, §2, §3

[7] = test system: MDAMB231; assay: Proliferation panel assay, MDAMB231; type: cell-based; conditions: Homo sapiens, MDA-MB-231, 120 h; Breast, MDAMB231, 5 days; read-out: Cellular Proliferation EC50
Experimental: as §1, §2, §3

[8] = test system: 786-0; assay: Proliferation panel assay, 786-0; type: cell-based; conditions: Homo sapiens, 120 h; RCC, 786-0, 5 days; read-out: Cellular Proliferation EC50
Experimental: as §1, §2, §3

Cc1[nH]c(-c2cc(NS(C)(=O)=O)ccc2Oc2ccccc2)c2c1C(=O)CCC2 [Example 40, N-[3-(3-methyl-4-oxo-4,5,6,7-tetrahydro-2H-isoindol-1-yl)-4-phenoxyphenyl]methanesulfonamide]
pEC50 [1]: 6.23
pKi [2]: 7.82
% TGI (tumor growth inhibition) ([3]; BID (5on 3off) x 2, based on day 31): 35*** %
% TGD (tumor growth delay) ([3]; BID (5on 3off) x 2, endpoint 1000 mm^3): 40** %
% TGI (tumor growth inhibition) ([3]; QDx14, based on day 31): 30* %
% TGD (tumor growth delay) ([3]; QDx14, endpoint 1000 mm^3): 40* %
pEC50 [4]: 6.47
pEC50 [5]: 6.39
pEC50 [6]: 6.49
pEC50 [7]: 6.51
pEC50 [8]: 6.86
